Test results reported in patent US6632816B1, “Aromatic derivatives as HIV aspartyl protease inhibitors” (Pharmacor Inc., priority 2002, dated 2003).

The molecules below were run against HIV protease (Human immunodeficiency virus type 1 group M subtype B, UniProt P04585) (assay: biochemical).

`CCOC(=O)N[C@@H](Cc1cccc2ccccc12)C(=O)NCCC[C@@H](CO)N(CC(C)C)S(=O)(=O)c1ccc(N)cc1` [Example 18, (1S,4S)-(1-{4-[(4-Amino-benzenesulfonyl)-isobutyl-amino]-5-hydroxy-pentylcarbamoyl}-2-naphthalen-1-yl-ethyl)-carbamic Acid Ethyl Ester] and `CCN[C@@H](Cc1cccc2ccccc12)C(=O)NCCC[C@@H](CO)N(CC(C)C)S(=O)(=O)c1ccc(N)cc1` [Example 26, (2S,4S)-N-{4-[(4-Amino-benzenesulfonyl)-isobutyl-amino]-5-hydroxy-pentyl}-2-ethylamino-3-naphthalen-1-yl-propionamide] are within 1.5-fold of each other in Ki: 3.9 nM for the first, 3 nM for the second.

`CC(C)CN([C@H](CO)CCCCNC(=O)[C@H](Cc1ccc2ccccc2c1)NC(=O)C1CCCC1)S(=O)(=O)c1ccc(N)cc1` [Example 60, (1S,5S)-Cyclopentanecarboxylic Acid (1-{5-[(4-Amino-benzenesulfonyl)-isobutyl-amino]-6-hydroxy-hexylcarbamoyl}-2-naphthalen-2-yl-ethyl)-amide] and `CC(C)CN([C@H](CO)CCCCNC(=O)[C@H](Cc1ccc2ccccc2c1)NC(=O)C1CCCCC1)S(=O)(=O)c1ccc(F)c(N)c1` [Example 88, (1S,5S)-Cyclohexanecarboxylic Acid (1-{5-[(3-Amino-4-fluoro-benzenesulfonyl)-isobutyl-amino]-6-hydroxy-hexylcarbamoyl}-2-naphthalen-2-yl-ethyl)-amide] cannot be ordered by Ki: 1.9 nM for the first, < 3.8 nM for the second.

`CC(C)CN([C@H](CO)CCCNC(=O)[C@@H](NC(=O)OC(C)(C)C)C(c1ccccc1)c1ccccc1)S(=O)(=O)c1ccc(N)cc1` [Example 16, (1S,4S)-(1-{4-[(4-Amino-benzenesulfonyl)-isobutyl-amino]-5-hydroxy-pentylcarbamoyl}-2,2-diphenyl-ethyl)-carbamic Acid tert-Butyl Ester] and `CC(C)CN([C@H](CO)CCCNC(=O)[C@@H](N)C(c1ccccc1)c1ccccc1)S(=O)(=O)c1ccc(N)cc1` [Example 24, (2S,4S)-2-Amino-N-{4-[(4-amino-benzenesulfonyl)-isobutyl-amino]-5-hydroxy-pentyl}-3,3-diphenyl-propionamide] are within 1.5-fold of each other in Ki: 9.3 nM for the first, 7.5 nM for the second.

`CC(C)CN([C@H](CO)CCCCNC(=O)[C@H](Cc1ccc2ccccc2c1)NC(=O)c1cccnc1)S(=O)(=O)c1ccc(F)c(N)c1` [Example 83] and `CC(C)CN([C@H](CO)CCCCNC(=O)[C@H](Cc1ccc2ccccc2c1)NC(=O)N(C)C)S(=O)(=O)c1ccc(F)c(N)c1` [Example 86, (2S,5S)-N-{5-[(3-Amino-4-fluoro-benzenesulfonyl)-isobutyl-amino]-6-hydroxy-hexyl}-2-(3,3-dimethyl-ureido)-3-naphthalen-2-yl-propionamide] cannot be ordered by Ki: < 3.8 nM for the first, < 3.8 nM for the second.

`CC(C)CN([C@H](CO)CCCCNC(=O)[C@@H](NC(=O)c1ccc([N+](=O)[O-])c(O)c1)C(c1ccccc1)c1ccccc1)S(=O)(=O)c1ccc(N)cc1` [Example 107, (1S,5S)-N-(1-{5-[(4-Amino-benzenesulfonyl)-isobutyl-amino]-6-hydroxy-hexylcarbamoyl}-2,2-diphenyl-ethyl)-3-hydroxy-4-nitro-benzamide] and `CC(C)CN([C@H](CO)CCCCNC(=O)[C@@H](NC(=O)c1ccc(O)nc1)C(c1ccccc1)c1ccccc1)S(=O)(=O)c1ccc(N)cc1` [Example 110, (1S,5S)-N-(1-{5-[(4-Amino-benzenesulfonyl)-isobutyl-amino]-6-hydroxy-hexylcarbamoyl}-2,2-diphenyl-ethyl)-6-hydroxy-nicotinamide] cannot be ordered by Ki: < 3.8 nM for the first, < 3.8 nM for the second.

`CC(C)CN([C@H](CO)CCCCNC(=O)[C@@H](NC(=O)c1ccc(O)cc1)C(c1ccccc1)c1ccccc1)S(=O)(=O)c1ccc(N)cc1` [Example 102, (1S,5S)-N-(1-{5-[(4-Amino-benzenesulfonyl)-isobutyl-amino]-6-hydroxy-hexylcarbamoyl}-2,2-diphenyl-ethyl)-4-hydroxy-benzamide] and `CC(C)CN([C@H](CO)CCCCNC(=O)[C@@H](NC(=O)OCc1ccncc1)C(c1ccccc1)c1ccccc1)S(=O)(=O)c1ccc(N)cc1` [Example 101, (1S,5S)-(1-{5-[(4-Amino-benzenesulfonyl)-isobutyl-amino]-6-hydroxy-hexylcarbamoyl}-2,2-diphenyl-ethyl)-carbamic Acid Pyridin-4-ylmethyl Ester] cannot be ordered by Ki: < 3.8 nM for the first, < 3.8 nM for the second.

`CC(C)CN([C@H](CO)CCCCNC(=O)[C@@H](NC(=O)OCc1cccnc1)C(c1ccccc1)c1ccccc1)S(=O)(=O)c1ccc(N)cc1` [Example 100, (1S,5S)-(1-{5-[(4-Amino-benzenesulfonyl)-isobutyl-amino]-6-hydroxy-hexylcarbamoyl}-2,2-diphenyl-ethyl)-carbamic Acid Pyridin-3-ylmethyl Ester] and `CC(C)CN([C@H](CO)CCCCNC(=O)[C@@H](NC(=O)Cc1cccnc1)C(c1ccccc1)c1ccccc1)S(=O)(=O)c1ccc(N)cc1` [Example 99, (2S,5S)-N-{5-[(4-Amino-benzenesulfonyl)-isobutyl-amino]-6-hydroxy-hexyl}-3,3-diphenyl-2-(2-pyridin-3-yl-acetylamino)-propionamide] cannot be ordered by Ki: < 3.8 nM for the first, < 3.8 nM for the second.

`CC(C)CN([C@H](CO)CCCCNC(=O)[C@H](Cc1ccc2ccccc2c1)NC(=O)C1CCOC1)S(=O)(=O)c1ccc(F)c(N)c1` (stereo partly drawn) [Example 85, (1S,5S)-Tetrahydro-furan-3-carboxylic Acid (1-{5-[(3-Amino-4-fluoro-benzenesulfonyl)-isobutyl-amino]-6-hydroxy-hexylcarbamoyl}-2-naphthalen-2-yl-ethyl)-amide] and `CC(C)CN([C@H](CO)CCCCNC(=O)[C@H](Cc1ccc2ccccc2c1)NC(=O)C1CC1)S(=O)(=O)c1ccc(F)c(N)c1` [Example 87, (1S,5S)-Cyclopropanecarboxylic Acid (1-{5-[(3-Amino-4-fluoro-benzenesulfonyl)-isobutyl-amino]-6-hydroxy-hexylcarbamoyl}-2-naphthalen-2-yl-ethyl)-amide] cannot be ordered by Ki: < 3.8 nM for the first, < 3.8 nM for the second.

First: CC(C)CN([C@H](CO)CCCCNC(=O)[C@@H](NC(=O)OCc1ccccn1)C(c1ccccc1)c1ccccc1)S(=O)(=O)c1ccc(N)cc1 [Example 95, (1S,5S)-(1-{5-[(4-Amino-benzenesulfonyl)-isobutyl-amino]-6-hydroxy-hexylcarbamoyl}-2,2-diphenyl-ethyl)-carbamic Acid Pyridin-2-ylmethyl Ester]
Second: CC(C)CN([C@H](CO)CCCCNC(=O)[C@@H](N)C(c1ccccc1)c1ccccc1)S(=O)(=O)c1ccc(N)cc1 [Example 72, (2S,5S)-2-Amino-N-{5-[(4-amino-benzenesulfonyl)-isobutyl-amino]-6-hydroxy-hexyl}-3,3-diphenyl-propionamide]
The Ki of the first is lower: < 3.8 nM for the first, 7.5 nM for the second.

`CC(C)CN[C@@H](Cc1ccc2ccccc2c1)C(=O)NCCCC[C@@H](CO)N(CC(C)C)S(=O)(=O)c1ccc(N)cc1` [Example 63, (2S,5S)-N-{5-[(4-Amino-benzenesulfonyl)-isobutyl-amino]-6-hydroxy-hexyl}-2-isobutylamino-3-naphthalen-2-yl-propionamide] and `CCCN[C@@H](Cc1ccc2ccccc2c1)C(=O)NCCCC[C@@H](CO)N(CC(C)C)S(=O)(=O)c1ccc(N)cc1` [Example 64, (2S,5S)-N-{5-[(4-Amino-benzenesulfonyl)-isobutyl-amino]-6-hydroxy-hexyl}-3-naphthalen-2-yl-2-propylamino-propionamide] are within 1.5-fold of each other in Ki: 3.9 nM for the first, 4.6 nM for the second.

Compared with `COC(=O)CN[C@@H](Cc1cccc2ccccc12)C(=O)NCCC[C@@H](CO)N(CC(C)C)S(=O)(=O)c1ccc(N)cc1` [Example 15, (1S,4S)-(1-{4-[(4-Amino-benzenesulfonyl)-isobutyl-amino]-5-hydroxy-pentylcarbamoyl}-2-naphthalen-1-yl-ethylamino)-acetic Acid Methyl Ester], `CC(C)CN([C@H](CO)CCCNC(=O)[C@H](Cc1cccc2ccccc12)NCC(=O)O)S(=O)(=O)c1ccc(N)cc1` [Example 27, (1S,4S)-(1-{4-[(4-Amino-benzenesulfonyl)-isobutyl-amino]-5-hydroxy-pentylcarbamoyl}-2-naphthalen-1-yl-ethylamino)-acetic Acid] is 1.7-fold lower in Ki: 4.2 nM for the first, 2.5 nM for the second. The second binds more tightly here.

First: CC(C)CN([C@H](CO)CCCCNC(=O)[C@@H](N)Cc1ccc2ccccc2c1)S(=O)(=O)c1ccc(F)c(N)c1 [Example 81, (2S,5S)-2-Amino-N-{5-[(3-amino-4-fluoro-benzenesulfonyl)-isobutyl-amino]-6-hydroxy-hexyl}-3-naphthalen-2-yl-propionamide]
Second: CC(C)CN([C@H](CO)CCCCNC(=O)[C@H](Cc1ccc2ccccc2c1)NC(=O)OC(C)(C)C)S(=O)(=O)c1ccc(F)c(N)c1 [Example 90, (1S,5S)-(1-{5-[(3-Amino-4-fluoro-benzenesulfonyl)-isobutyl-amino]-6-hydroxy-hexylcarbamoyl}-2-naphthalen-2-yl-ethyl)-carbamic Acid tert-Butyl Ester]
The Ki of the first is lower: < 3.8 nM for the first, 4 nM for the second.

Compared with `CC(C)CN([C@H](CO)CCCCNC(=O)[C@H](Cc1ccc2ccccc2c1)NCC(C)(C)C)S(=O)(=O)c1ccc(N)cc1` [Example 69, (2S,5S)-N-{5-[(4-Amino-benzenesulfonyl)-isobutyl-amino]-6-hydroxy-hexyl}-2-(2,2-dimethyl-propylamino)-3-naphthalen-2-yl-propionamide], `CC(C)CN([C@H](CO)CCCCNC(=O)[C@H](Cc1ccc(-c2ccccc2)cc1)NC(=O)OC(C)(C)C)S(=O)(=O)c1ccc(N)cc1` [Example 59, (1S,5S)-(1-{5-[(4-Amino-benzenesulfonyl)-isobutyl-amino]-6-hydroxy-hexylcarbamoyl}-2-biphenyl-4-yl-ethyl)-carbamic Acid tert-Butyl Ester] is 3.7-fold lower in Ki: 22 nM for the first, 6 nM for the second.

Going from `COC(=O)N[C@@H](Cc1ccccc1-c1ccc(OC)cc1)C(=O)NCCC[C@@H](CO)N(CC(C)C)S(=O)(=O)c1ccc(N)cc1` [Example 6, (1S,4S)-[1-{4-[(4-Amino-benzenesulfonyl)-isobutyl-amino]-5-hydroxy-pentylcarbamoyl}-2-(4′-methoxy-biphenyl-2-yl)-ethyl]-carbamic Acid Methyl Ester] to `CC(C)CN([C@H](CO)CCCNC(=O)[C@H](Cc1cccc2ccccc12)NC(=O)C1CCCC1)S(=O)(=O)c1ccc(N)cc1` [Example 23, (1S,4S)-Cyclopentanecarboxylic Acid (1-{4-[(4-Amino-benzenesulfonyl)-isobutyl-amino]-5-hydroxy-pentylcarbamoyl}-2-naphthalen-1-yl-ethyl)-amide], the Ki falls from 13 nM to 2 nM (6.5-fold).
